Data set [1] is described as follows: Acute toxicity, 24 hours mortality after i.p. administration to mice. To be noted: mouse, in vivo, ip, female mice, 20 g. The protocol:
Finally, the acute toxicity was determined for various products according to the invention. The products were administered intraperitoneally in increasing doses to groups of 10 female mice (Swiss, CD 1, Charles River, France) with a body weight of 20 g.

The subject of data set [2] is M1 central muscarinic cholinergic receptors. In words: Antagonism of rotations induced by intrastriatal injection of pirenzepine in mice. Type of data set: in vivo, mice (Swiss, CD 1). To be noted: for Pirenzepine antagonism ED50 i.p.: 15 minutes before intrastriatal pirenzepine 1 μg; for Pirenzepine antagonism ED50 p.o.: 30 minutes before intrastriatal pirenzepine 1 μg. The protocol:
Pirenzepine (PZ) is a specific antagonist of the M1 central muscarinic cholinergic receptors. The intrastriatal injection of PZ into mice induces rotatory behavoir. The antagonism of this behavoir by the products according to the invention was studied.
The products according to the invention are administered either intraperitoneally (i.p.) or orally (p.o.) after solubilization in distilled water or suspension in a 5% solution of gum arabic. The control animals receive the pure solvent under the same conditions.
The animals used are female mice (Swiss, CD 1, Charles River, France) with a body weight of between 25 and 30 grams.
The pirenzepine is dissolved in a phosphate buffer and the pH of the solution is 6.
The test products or their solvents are administered in a volume of 0.4 ml per 20 g of body weight, either by i.p. injection or orally via an esophageal tube.
The number of contralateral rotations (rotations in the opposite direction to the side injected) was counted for three 2-minute periods after injection of the pirenzepine: 2nd to 4th, 8th to 10th and 13th to 15th minutes. Each treatment consists of 3 to 4 doses and 10 animals per dose. The total number of rotations and the percentage antagonism with respect to the control group are calculated for each treatment.

Data set [3] concerns the target T1, M1 -type muscarinic cholinergic receptor (Rattus norvegicus, UniProt P08482).
T1 sequence (P08482 1-460): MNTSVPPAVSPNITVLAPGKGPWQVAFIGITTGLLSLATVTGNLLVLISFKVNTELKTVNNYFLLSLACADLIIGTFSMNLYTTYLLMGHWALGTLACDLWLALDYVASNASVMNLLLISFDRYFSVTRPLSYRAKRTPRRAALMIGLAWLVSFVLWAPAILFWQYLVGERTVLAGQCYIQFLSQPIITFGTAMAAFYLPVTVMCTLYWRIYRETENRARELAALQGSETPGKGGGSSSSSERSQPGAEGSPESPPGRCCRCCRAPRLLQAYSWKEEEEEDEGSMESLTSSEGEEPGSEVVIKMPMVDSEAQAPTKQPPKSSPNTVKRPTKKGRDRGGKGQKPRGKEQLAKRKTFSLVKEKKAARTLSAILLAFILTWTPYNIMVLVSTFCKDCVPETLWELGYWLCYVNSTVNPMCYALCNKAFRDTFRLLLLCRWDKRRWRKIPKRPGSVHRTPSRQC
In words: biochemical. The data set is classed as binding. To be noted: for IC50: rat hippocampus homogenate, 3H-PZ 1 nM, 2 hours at 4° C., pH 7.40, read-out: IC50 3H-PZ (M1); for ratio R of the IC50 values for the M1 and M2 receptors: selectivity, values correspond to IC50 M2 / IC50 M1.
Procedure: The interaction of the molecules with the M1 -type muscarinic receptors was studied by in vitro measurement, on a rat hippocampus homogenate, of the displacement of tritiated pirenzepine from its specific binding sites. Aliquots (10 μl) of a 5% (w/v) rat hippocampus homogenate in an Na2 HPO4 buffer (50 mM, pH 7.40) are incubated for 2 hours at 4° C. in the presence of ^3 H-PZ (76 Ci/mmol; final concentration 1 nM) and increasing concentrations of the test product. The final volume is 2 ml. The reaction is stopped by centrifugation for 10 minutes at 50,000×g. After decantation and washing of the residues, the bound radioactivity is counted by liquid scintillation. The non-specific binding is determined in the presence of 10 μM atropine sulfate.

Data set [4] concerns the target T2, M2 -type muscarinic cholinergic receptor (Cavia porcellus, UniProt H0VRN8).
T2 construct: on a smooth guinea-pig ileum muscle homogenate; from tissue; host or cells: guinea-pig ileum smooth muscle homogenate
T2 sequence (H0VRN8 1-466): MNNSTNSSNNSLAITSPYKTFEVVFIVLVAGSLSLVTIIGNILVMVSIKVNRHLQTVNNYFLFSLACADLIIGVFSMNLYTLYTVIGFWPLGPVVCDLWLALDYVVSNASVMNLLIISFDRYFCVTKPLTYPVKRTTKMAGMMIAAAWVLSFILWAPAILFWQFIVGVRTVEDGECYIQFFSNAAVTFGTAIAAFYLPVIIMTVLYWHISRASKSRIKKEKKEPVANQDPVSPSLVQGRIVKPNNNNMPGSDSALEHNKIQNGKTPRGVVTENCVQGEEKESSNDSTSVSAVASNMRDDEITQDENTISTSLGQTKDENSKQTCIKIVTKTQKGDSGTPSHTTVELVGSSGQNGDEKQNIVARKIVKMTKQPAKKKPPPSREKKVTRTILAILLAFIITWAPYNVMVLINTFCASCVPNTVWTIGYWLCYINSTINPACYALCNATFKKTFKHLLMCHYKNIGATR
The data set is described as follows: Affinity for the M2-type muscarinic cholinergic receptor, displacement of tritiated N-methylscopolamine (3H-NMS) on smooth guinea-pig ileum muscle homogenate. The data set is classed as binding. To be noted: guinea-pig ileum smooth muscle homogenate, 3H-NMS 0.3 nM, 20 minutes at 30° C., pH 7.5; read-out: IC50 3H-NMS (M2). The protocol:
The M1 -type receptors are concentrated in certain regions of the brain, such as the hippocampus, the cerebral cortex and the striatum, and also in the sympathetic ganglia. These binding sites can be selectively labeled with tritiated pirenzepine (^3 H-PZ). The M2 -type receptors predominate in the heart and the ileum and can be labeled with tritiated N-methyl-scopolamine (^3 H-NMS). The selectivity of the products of the invention with respect to the M1 and M2 sites was determined by studying their in vitro interaction with ^3 H-PZ and ^3 H-NMS firmly bound with a high affinity to rat hippocampus membranes and smooth guinea-pig ileum muscle, respectively.
The interaction with the M2 -type muscarinic receptors was studied by in vitro measurement, on a smooth guinea-pig ileum muscle homogenate, of the displacement of tritiated N-methylscopolamine from its specific binding sites. […] The final volume is 1 ml. The reaction is stopped by centrifugation for 5 minutes at 15,000×g. The non-specific binding is determined in the presence of 10 mM atropine sulfate.
The IC50 for ^3 H-PZ displacement represents the affinity for the M1 receptor; the IC50 for ^3 H-NMS displacement represents the affinity for the M2 receptor.

Take `c1ccc(-c2csc(NCCN3CCOCC3)n2)cc1` [SR 44244 A]: the LD50 (commonly the dose expected to kill half of the subjects tested) at 24 h in data set [1] is 250 mg/kg. Besides, in data set [2], the “Pirenzepine antagonism ED50 i.p.” value was 8 mg/kg and the “Pirenzepine antagonism ED50 p.o.” value is 20 mg/kg.
With `Cl.Cl.c1ccc2c(c1)CCc1sc(NCCN3CCOCC3)nc1-2` [SR 44273 A, 2-(2-Morpholinoethylamino)-4,5-dihydronaphtho[1,2-d]thiazole dihydrochloride], the LD50 at 24 h in data set [1] is greater than 100 mg/kg.
On to `c1ccc(-c2csc(NCCCN3CCOCC3)n2)cc1` [SR 44284 A], for which the IC50 (usually the midpoint of a concentration-inhibition curve) in data set [3] was 8 µM; in data set [4] it was 40 µM. The “ratio R of the IC50 values for the M1 and M2 receptors” value (“ratio R of the IC50 values” below) in data set [3] is 5. This molecule showed an LD50 at 24 h in data set [1] of 450 mg/kg. Also, the “Pirenzepine antagonism ED50 i.p.” value in data set [2] turned out to be 8 mg/kg.
Take `CCN(CC)CCNc1nc(-c2ccccc2)cs1` [SR 44286 A]: in data set [3], the IC50 was found to be 6 µM; the “ratio R of the IC50 values” value is listed as 16. Further, the LD50 at 24 h in data set [1] was determined as 200 mg/kg. In addition, in data set [4], the concentration for half-maximal inhibition (IC50) came to 100 µM. In data set [2], the “Pirenzepine antagonism ED50 i.p.” value was 3 mg/kg and the “Pirenzepine antagonism ED50 p.o.” value was 10 mg/kg.
On to `CN(C)CCCNc1nc(-c2ccccc2)cs1` [SR 44345 A], for which, in data set [3], the concentration for half-maximal inhibition (IC50) was found to be 1 µM; the “ratio R of the IC50 values” value was 70. The molecule further registered an LD50 at 24 h in data set [1] of 200 mg/kg. Besides, in data set [4], the IC50 is 70 µM. Moreover, in data set [2], the “Pirenzepine antagonism ED50 i.p.” value is recorded as 0.5 mg/kg and the “Pirenzepine antagonism ED50 p.o.” value came to 1 mg/kg.
Take `CCN(CC)CCCNc1nc(-c2c(C)cc(C)cc2C)cs1` [SR 44347 A]: in data set [3], the IC50 was 0.35 µM; the “ratio R of the IC50 values” value was 37. In data set [1], the LD50 at 24 h was 60 mg/kg. The half-maximal inhibitory concentration (IC50) in data set [4] came to 13 µM. In addition, in data set [2], the “Pirenzepine antagonism ED50 i.p.” value came out at 0.03 mg/kg and the “Pirenzepine antagonism ED50 p.o.” value is 0.20 mg/kg.
Consider `CCN(CC)CCNc1nc(-c2c(C)cc(C)cc2C)cs1` [SR 44372 A], for which, in data set [3], the 50% inhibitory concentration (IC50) worked out at 0.12 µM; the “ratio R of the IC50 values” value was 41. Also, the LD50 at 24 h in data set [1] came out at 75 mg/kg. In data set [4], the IC50 turned out to be 5 µM. In data set [2], the “Pirenzepine antagonism ED50 i.p.” value is 1 mg/kg and the “Pirenzepine antagonism ED50 p.o.” value is 3 mg/kg.
Turning to `CCN(CC)CCCNc1nc(C)c(-c2ccccc2)s1` [SR 44373 A], in data set [3], the 50% inhibitory concentration (IC50) was determined as 0.7 µM; the “ratio R of the IC50 values” value was 21. For the same molecule, in data set [1], the median lethal dose (LD50) at 24 h was determined as 75 mg/kg. Further, the IC50 in data set [4] was determined as 15 µM. Further, in data set [2], the “Pirenzepine antagonism ED50 i.p.” value came to 0.3 mg/kg and the “Pirenzepine antagonism ED50 p.o.” value is given as 1 mg/kg.
With `CCN(CC)CCCNc1nc(-c2ccccc2)cs1` [SR 44374 A], in data set [3], the IC50 came out at 0.4 µM; the “ratio R of the IC50 values” value was determined as 20. In data set [1], this molecule gave an LD50 at 24 h of 150 mg/kg. The IC50 in data set [4] was determined as 8 µM. Also, the “Pirenzepine antagonism ED50 i.p.” value in data set [2] was 3 mg/kg.
As for `Cc1cc(C)c(-c2csc(NCCCN3CCN(C)CC3)n2)c(C)c1` [SR 44915 A], in data set [3], the IC50 was determined as 0.4 µM; the “ratio R of the IC50 values” value stood at 100. Further, the IC50 in data set [4] was found to be 40 µM. Besides, the “Pirenzepine antagonism ED50 p.o.” value in data set [2] worked out at 3 mg/kg.
`Cc1cc(C)c(-c2csc(NCCCN3CCCC3)n2)c(C)c1` [SR 44964 A]: the IC50 turned out to be 0.9 µM in data set [3] and 28 µM in data set [4]. Moreover, in data set [3], the “ratio R of the IC50 values” value came out at 31. The “Pirenzepine antagonism ED50 p.o.” value in data set [2] was 3 mg/kg.
Take `CCN1CCCC(Nc2nc(-c3c(C)cc(C)cc3C)cs2)C1` (stereo not drawn) [SR 44965 A]: in data set [3], the IC50 was determined as 1.2 µM; the “ratio R of the IC50 values” value was 50. The IC50 in data set [4] is 60 µM. The “Pirenzepine antagonism ED50 p.o.” value in data set [2] was determined as 3 mg/kg.
Take `Cc1ccccc1-c1csc(NCCCN(C)C)n1` [SR 45001 A]: in data set [3], the IC50 was found to be 2.6 µM; the “ratio R of the IC50 values” value came to 11. Further, the half-maximal inhibitory concentration (IC50) in data set [4] was 30 µM. In data set [2], the “Pirenzepine antagonism ED50 p.o.” value is listed as 3 mg/kg.
In the case of `CN(C)CCCNc1nc(-c2ccccc2)c(-c2ccccc2)s1` [SR 45015 A], in data set [3], the IC50 was 0.3 µM; the “ratio R of the IC50 values” value worked out at 13. Besides, in data set [4], the IC50 worked out at 4 µM. In data set [2], the “Pirenzepine antagonism ED50 p.o.” value was 0.70 mg/kg.
Take `CN(C)CCCNc1nc(Cc2ccccc2)c(-c2ccccc2)s1` [SR 45016 A]: the IC50 in data set [3] stood at 0.1 µM; in data set [4] it was 5.5 µM. Also, the “ratio R of the IC50 values” value in data set [3] was 55. Also, the “Pirenzepine antagonism ED50 p.o.” value in data set [2] is 2 mg/kg.
With `CNCCCNc1nc(-c2c(C)cc(C)cc2C)cs1` [SR 45030 A], in data set [3], the IC50 is 1.6 µM; the “ratio R of the IC50 values” value worked out at 50. In addition, the IC50 in data set [4] turned out to be 80 µM. The “Pirenzepine antagonism ED50 p.o.” value in data set [2] is given as 1 mg/kg.

These data come from patent US5378706A, “Fused-thiazole derivatives active on the cholinergic system, and pharmaceutical compositions containing same” (Sanofi, priority 1987, dated 1995).
